Reference: paper PMC5412877, “Discovery of a PCAF Bromodomain Chemical Probe” (Angewandte Chemie (International Ed. in English), 2016)
Where two headings read alike, the source gives them in different places.

Key:
HIV‐1 = conditions: ref 8c; read-out: HIV-1 EC50 (disrupting HIV‐1 replication); cited from earlier work
PCAF Brd [1] = target: T1, PCAF Brd (Homo sapiens, UniProt Q92831); experiment: Differential scanning fluorimetry (DSF), PCAF Brd; format: binding; conditions: compound concentration 10 μM
T1 construct: Human bromodomains were cloned, expressed and purified as previously described; made in house
T1 sequence (Q92831 723-827 limits assumed): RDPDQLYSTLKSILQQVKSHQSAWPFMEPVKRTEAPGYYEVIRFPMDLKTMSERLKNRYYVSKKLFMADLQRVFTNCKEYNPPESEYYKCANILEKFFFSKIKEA
Method: (§1) Protein Expression and Purification
(§2) Human bromodomains were cloned, expressed and purified as previously described.[1]
(§3) Differential Scanning Fluorimetry (DSF)
(§4) Thermal melting points were recorded using an Mx3005p Real Time PCR Machine (Stratagene).
(§5) Subject proteins were buffered in 10 mM HEPES at pH 7.5, 500 mM NaCl and assayed in a 96-well […]
(§6) plate at a final concentration of 2 μM in 20 μL volume. Compounds were then added to a final […]
(§7) concentration of 10 μM. SPYRO Orange (Molecular Probes) was used as a fluorescent probe at a […]
(§8) dilution of 1:1000. Excitation and emission filters for the SPYRO-Orange dye were set to 465 nm and […]
(§9) 590 nm, respectively. The temperature was raised with a step of 3 °C/min from 25 °C to 96 °C and […]
(§10) fluorescence readings were taken at each interval. Data was analysed as previously described.[2]
(§11) Bromodomain affinity selectivity panel of (S)-11
(§12) Supplemental Figure 1. DSF Selectivity panel of (S)-11 against 48 human Bromodomains. […]
(§13) ┼Mean ΔTm ± SEM (number of measurements= 2). Compound concentration: 10 μM […]
(§14) (1 picture or pasted object on this page, not shown here)

GCN5L2 = target: T2, GCN5L2 (Homo sapiens, UniProt Q92830); experiment: Differential scanning fluorimetry (DSF), GCN5 (GCN5L2) Brd; format: binding; conditions: compound 10 μM; for ΔTm at 10 µM: read-out: GCN5L2 ΔTm (°C) (DSF)
T2 construct: made in house
T2 sequence (Q92830 728-832 limits assumed): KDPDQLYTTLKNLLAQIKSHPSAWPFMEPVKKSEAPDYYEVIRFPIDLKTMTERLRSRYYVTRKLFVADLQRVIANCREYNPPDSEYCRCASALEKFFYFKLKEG
Method: as §1, §2, §3, §4, §5, §6, §7, §8, §9, §10, §11, §12, §13, §14

PCAF Brd [2] = target: T1, PCAF Brd; experiment: Isothermal titration calorimetry (ITC), PCAF Brd; format: binding
Method: Isothermal Titration Calorimetry (ITC)
Experiments were carried out on a Nano-ITC Standard Volume Instrument (TA Instruments). All experiments were carried out at 25 °C in 20 mM HEPES pH 7.5, 150 mM NaCl, 0.5 mM TCEP and 5% glycerol. Protein solutions were buffer exchanged by gel filtration. The titrations were conducted using an initial injection of 2 μL followed by 32 injections of 8 μL. Background dilution heat was substracted from each experiment. Thermodynamic parameters were calculated using ΔG = ΔH-T ΔS = -RTlnKB , where KD = 1/KB. ΔG, ΔH and ΔS are changes in free energy, enathalpy and entropy resepectively. Independent single site binding models were employed in data analysis.
Supplemental Figure 3. ITC trace of D-Moses and PCAF Brd […]

[3] = Metabolic stability in human liver microsomes; format: in vitro ADME
Method: (§15) In vitro Metabolism Studies
(§16) Metabolic stability studies were carried out exposing nominated compounds to samples of liver microsomes. Compounds were analysed by LC-MS for loss of compound at 0, 5, 15, 30 and 45 minute time points. The rate of metabolic degradation of compounds was used to calculate CLint, SE CLint, t1/2 (summarised in supplemental table 2.)
(§17) Supplemental Table 4. In vitro metabolic stability of compounds DL-45/DL-Moses and 39 Compound Metbolic Stability (Human) Metbolic Stability (Mouse) […]

[4] = Metabolic stability in mouse liver microsomes; format: in vitro ADME
Method: as §15, §16, §17

[5] = Supplemental Table 3, compound concentration 30 μM, protein concentration 280-320 μM, read-out: PCAF KD (μM) (ITC)
[6] = Table 2, read-out: K D (nM) (ITC) PCAF Brd

ΔT m [°C] PCAF (DSF) (PCAF Brd [1]) [°C]	GCN5L2 ΔTm (°C) (DSF) (GCN5L2)	Kd (PCAF Brd [2]; [5]) [µM]	ΔTm at 10 µM (GCN5L2) [°C]	SMILES	other results
–	–	–	–	Cc1ccc(NCCCN)c([N+](=O)[O-])c1 [Compound 1]	EC50 (HIV‐1): 2.8 µM
2.8	0.9	18.2	–	Cc1nnc2c3ccccc3c(NCC3CCCN3C)nn12 (centres unmarked) [Compound 97]	–
9.6	–	–	6.3	COC(=O)c1ccc([C@@H]([C@H](C)Nc2nn3c(C)nnc3c3ccccc23)N(C)C)cc1 [Compound 40]	Kd (PCAF Brd [2]; [6]): 0.133 ± 0.015 µM
0.8	0.1	> 30	–	Cc1nnc2c3ccccc3c(N3CCC(N(C)C)C3)nn12 (centres unmarked) [Compound 68]	–
0.4	0.1	> 30	–	COc1cccc(N2CC(Nc3nn4c(C)nnc4c4ccccc34)CC2=O)c1 (centres unmarked) [Compound 57]	–
0.7	–	> 30	0.2	CN(C)[C@H]1CCC[C@@H]1Nc1nn2c(C(F)(F)F)nnc2c2ccccc12 [Compound 84]	–
4.6	–	–	1	Cc1nnc2c3ccccc3c(NCC(C)N(C)C)nn12 (centres unmarked) [Compound 15]	Kd (PCAF Brd [2]; Table 1, read-out: K D [μM] (ITC) PCAF Brd): 7.3 ± 1.1 µM
8.3	–	–	4.4	Cc1nnc2c3ccccc3c(N[C@@H](C)[C@H](c3ccc(F)cc3)N(C)C)nn12 (relative stereo) [Compound 39]	microsomal CLint ([3]; human liver microsomes, n 5, read-out: CLint (μL/min/mg protein) human): 29 µL/min/mg; half-life ([3]; human, liver microsomes, read-out: t1/2 human liver microsomes): 48 min; microsomal CLint ([4]; mouse liver microsomes, n 5, read-out: CLint (μL/min/mg protein) mouse): 21 µL/min/mg; half-life ([4]; mouse, liver microsomes, read-out: t1/2 mouse liver microsomes): 65 min; Kd (PCAF Brd [2]; [6]): 0.195 ± 0.023 µM
